According to ChEMBL document CHEMBL4706525, “Designing an eEF2K-Targeting PROTAC small molecule that induces apoptosis in MDA-MB-231 cells” (Eur J Med Chem, 2020):
One block for each compound: values may come before it. Calls of active or inactive are those of the source. The calls are words filed in the database; no cut-off is given here.

What was measured:
[1] = target: T1, Protein cereblon/Eukaryotic elongation factor 2 kinase (Homo sapiens) (UniProt O00418+Q96SW2); experiment: Protac activity at eEF2K/E3 ubiquitin ligase in human MDA-MB-231 cells assessed as degradation of eEF2K at 200 uM measured after 24 hrs by western blot assay; type: cell-based
T1 sequence (Q96SW2 whole entry, looked up, one chain of several): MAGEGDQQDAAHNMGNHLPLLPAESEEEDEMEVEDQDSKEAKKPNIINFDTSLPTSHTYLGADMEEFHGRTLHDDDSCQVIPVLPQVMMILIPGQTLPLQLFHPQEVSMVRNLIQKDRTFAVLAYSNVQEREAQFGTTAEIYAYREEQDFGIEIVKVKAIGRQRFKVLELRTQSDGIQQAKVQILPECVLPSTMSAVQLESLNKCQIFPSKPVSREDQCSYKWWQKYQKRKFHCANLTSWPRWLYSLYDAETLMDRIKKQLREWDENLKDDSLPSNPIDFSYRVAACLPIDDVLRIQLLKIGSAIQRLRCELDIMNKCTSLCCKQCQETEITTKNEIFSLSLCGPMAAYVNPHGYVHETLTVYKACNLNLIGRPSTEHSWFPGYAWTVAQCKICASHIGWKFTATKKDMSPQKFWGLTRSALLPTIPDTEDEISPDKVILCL

[2] = target: T2, Eukaryotic elongation factor 2 kinase (Homo sapiens, UniProt O00418); experiment: Inhibition of eEF2K (unknown origin)
T2 sequence (O00418 whole entry): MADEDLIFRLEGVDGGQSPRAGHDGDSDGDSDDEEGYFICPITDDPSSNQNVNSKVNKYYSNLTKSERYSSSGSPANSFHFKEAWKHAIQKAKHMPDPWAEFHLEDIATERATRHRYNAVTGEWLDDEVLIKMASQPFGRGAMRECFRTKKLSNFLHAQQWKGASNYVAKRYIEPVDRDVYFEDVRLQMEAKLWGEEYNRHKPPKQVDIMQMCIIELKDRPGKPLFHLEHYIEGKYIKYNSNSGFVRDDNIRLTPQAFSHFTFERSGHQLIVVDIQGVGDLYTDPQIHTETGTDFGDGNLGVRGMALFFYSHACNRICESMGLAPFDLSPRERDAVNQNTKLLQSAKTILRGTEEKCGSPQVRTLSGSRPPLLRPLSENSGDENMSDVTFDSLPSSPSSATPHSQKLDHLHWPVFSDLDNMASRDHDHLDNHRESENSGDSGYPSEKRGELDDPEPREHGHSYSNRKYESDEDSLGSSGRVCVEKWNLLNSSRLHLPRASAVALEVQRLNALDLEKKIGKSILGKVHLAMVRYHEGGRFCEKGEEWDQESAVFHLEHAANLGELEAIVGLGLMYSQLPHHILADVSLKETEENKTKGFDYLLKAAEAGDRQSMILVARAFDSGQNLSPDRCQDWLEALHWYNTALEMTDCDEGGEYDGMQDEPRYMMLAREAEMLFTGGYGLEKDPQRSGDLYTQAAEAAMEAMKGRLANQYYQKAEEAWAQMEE

MDA-MB-231 [3] = experiment: Antiproliferative activity against human MDA-MB-231 cells at 100 uM measured by crystal violet staining based colony forming assay; type: functional, cell-based
MDA-MB-231 [4] = experiment: Induction of apoptosis in human MDA-MB-231 cells at 100 uM measured after 24 hrs by Hoechst staining based fluorescence microscopic method; type: functional, cell-based
[5] = target: T1, Protein cereblon/Eukaryotic elongation factor 2 kinase (Homo sapiens); experiment: Protac activity at eEF2K/E3 ubiquitin ligase in human MDA-MB-231 cells assessed as degradation of eEF2K at 12.5 to 200 uM measured after 24 hrs by western blot assay; type: cell-based; conditions: dose 12.5-200 µM
[6] = target: T1, Protein cereblon/Eukaryotic elongation factor 2 kinase (Homo sapiens); experiment: Protac activity at eEF2K/E3 ubiquitin ligase in human MDA-MB-231 cells assessed as degradation of eEF2K at 100 uM pretreated with MG-132 for 2 hrs followed by compound addition measured after 8 hrs by western blot assay; type: cell-based
[7] = target: T1, Protein cereblon/Eukaryotic elongation factor 2 kinase (Homo sapiens); experiment: Protac activity at eEF2K/E3 ubiquitin ligase in human MDA-MB-231 cells assessed as degradation of eEF2K at 100 uM pretreated with thalidomide for 2 hrs followed by compound addition measured after 8 hrs by western blot assay; type: cell-based
[8] = target: T1, Protein cereblon/Eukaryotic elongation factor 2 kinase (Homo sapiens); experiment: Protac activity at eEF2K/E3 ubiquitin ligase in human MDA-MB-231 cells assessed as degradation of eEF2K measured after 24 hrs by western blot assay; type: cell-based; conditions: dose 50-200 µM
[9] = target: T1, Protein cereblon/Eukaryotic elongation factor 2 kinase (Homo sapiens); experiment: Protac activity at eEF2K/E3 ubiquitin ligase in human MDA-MB-231 cells assessed as degradation of p-eEF2K measured after 24 hrs by western blot assay; type: cell-based; conditions: dose 50-200 µM
MDA-MB-231 [10] = experiment: Induction of apoptosis in human MDA-MB-231 cells assessed as viable cells at 50 uM measured after 24 hrs by Annexin V/PI staining based flowcytometry method (reference value: 94.63%); type: functional; conditions: read-out: Activity
MDA-MB-231 [11] = experiment: Induction of apoptosis in human MDA-MB-231 cells assessed as early apoptotic cells at 50 uM measured after 24 hrs by Annexin V/PI staining based flowcytometry method (reference value: 3.12%); type: functional
MDA-MB-231 [12] = experiment: Induction of apoptosis in human MDA-MB-231 cells assessed as late apoptotic cells at 50 uM measured after 24 hrs by Annexin V/PI staining based flowcytometry method (reference value: 1.81%); type: functional
MDA-MB-231 [13] = experiment: Induction of apoptosis in human MDA-MB-231 cells assessed as necrotic cells at 50 uM measured after 24 hrs by Annexin V/PI staining based flowcytometry method (reference value: 0.44%); type: functional
MDA-MB-231 [14] = experiment: Induction of apoptosis in human MDA-MB-231 cells assessed as viable cells at 100 uM measured after 24 hrs by Annexin V/PI staining based flowcytometry method (reference value: 94.63%); type: functional; conditions: read-out: Activity
MDA-MB-231 [15] = experiment: Induction of apoptosis in human MDA-MB-231 cells assessed as early apoptotic cells at 100 uM measured after 24 hrs by Annexin V/PI staining based flowcytometry method (reference value: 3.12%); type: functional
MDA-MB-231 [16] = experiment: Induction of apoptosis in human MDA-MB-231 cells assessed as late apoptotic cells at 100 uM measured after 24 hrs by Annexin V/PI staining based flowcytometry method (reference value: 1.81%); type: functional
MDA-MB-231 [17] = experiment: Induction of apoptosis in human MDA-MB-231 cells assessed as necrotic cells at 100 uM measured after 24 hrs by Annexin V/PI staining based flowcytometry method (reference value: 0.44%); type: functional
MDA-MB-231 [18] = experiment: Induction of apoptosis in human MDA-MB-231 cells assessed as viable cells at 200 uM measured after 24 hrs by Annexin V/PI staining based flowcytometry method (reference value: 94.63%); type: functional; conditions: read-out: Activity
MDA-MB-231 [19] = experiment: Induction of apoptosis in human MDA-MB-231 cells assessed as early apoptotic cells at 200 uM measured after 24 hrs by Annexin V/PI staining based flowcytometry method (reference value: 3.12%); type: functional
MDA-MB-231 [20] = experiment: Induction of apoptosis in human MDA-MB-231 cells assessed as late apoptotic cells at 200 uM measured after 24 hrs by Annexin V/PI staining based flowcytometry method (reference value: 1.81%); type: functional
MDA-MB-231 [21] = experiment: Induction of apoptosis in human MDA-MB-231 cells assessed as necrotic cells at 200 uM measured after 24 hrs by Annexin V/PI staining based flowcytometry method (reference value: 0.44%); type: functional
MCF-10A = experiment: Cytotoxicity against human MCF-10A cells; type: cell-based
MDA-MB-231 [22] = experiment: Induction of apoptosis in human MDA-MB-231 cells assessed as upregulation of Bax expression at 50 to 200 uM measured after 24 hrs by western blot assay; type: functional, cell-based; conditions: dose 50-200 µM
MDA-MB-231 [23] = experiment: Induction of apoptosis in human MDA-MB-231 cells assessed as upregulation of cleaved caspase3 expression at 50 to 200 uM measured after 24 hrs by western blot assay; type: functional, cell-based; conditions: dose 50-200 µM
MDA-MB-231 [24] = experiment: Induction of apoptosis in human MDA-MB-231 cells assessed as decrease in Bcl2 expression at 50 to 200 uM measured after 24 hrs by western blot assay; type: functional, cell-based; conditions: dose 50-200 µM
MDA-MB-231 [25] = experiment: Effect on eEF2K expression in human MDA-MB-231 cells at 10 uM measured after 2 hrs by western blot assay; type: functional, cell-based

SMILES: N#CC1=C(N)SC(N)=C(C#N)C1c1ccccc1F
IC50 [2]: 60 µM

SMILES: NC(=O)c1cc2c(=O)n(CC(=O)NCCOCCNC(=O)COc3cccc4c3C(=O)N(C3CCC(=O)NC3=O)C4=O)c(=O)n(C3CC3)c2cc1N (stereo not drawn)
Activity [1]: inactive

SMILES: CCn1c(=O)c2cc(C(N)=O)c(N)nc2n(C2CC2)c1=O
Activity (MDA-MB-231 [3]): Active
Activity (MDA-MB-231 [4]): Active

SMILES: NC(=O)c1cc2c(=O)n(CC(=O)NCCNC(=O)COc3cccc4c3C(=O)N(C3CCC(=O)NC3=O)C4=O)c(=O)n(C3CC3)c2nc1N (stereo not drawn)
Activity [1]: inactive

SMILES: CCn1c(=O)n(CC(=O)NCCOCCNC(=O)COc2cccc3c2C(=O)N(C2CCC(=O)NC2=O)C3=O)c(=O)c2cc(C(N)=O)c(N)nc21 (stereo not drawn)
Activity [1]: 56.7%
Activity [5]: Active
Activity [6]: inactive
Activity [7]: inactive
Activity [8]: Active
Activity [9]: Active
Activity (MDA-MB-231 [3]): Active
Activity (MDA-MB-231 [4]): Active
viability at 50 µM (MDA-MB-231 [10]): 89.9%
Activity (MDA-MB-231 [11]): 5.29%
Activity (MDA-MB-231 [12]): 3.24%
Activity (MDA-MB-231 [13]): 1.6%
viability at 100 µM (MDA-MB-231 [14]): 84.4%
Activity (MDA-MB-231 [15]): 7.51%
Activity (MDA-MB-231 [16]): 7.38%
Activity (MDA-MB-231 [17]): 0.68%
viability at 200 µM (MDA-MB-231 [18]): 67.6%
Activity (MDA-MB-231 [19]): 24.72%
Activity (MDA-MB-231 [20]): 6.12%
Activity (MDA-MB-231 [21]): 1.57%
Activity (MCF-10A): Toxic
Activity (MDA-MB-231 [22]): Active
Activity (MDA-MB-231 [23]): Active
Activity (MDA-MB-231 [24]): Active

SMILES: CCn1c(=O)n(CC(=O)NCCOCCNc2cccc3c2C(=O)N(C2CCC(=O)NC2=O)C3=O)c(=O)c2cc(C(N)=O)c(N)cc21 (stereo not drawn)
Activity [1]: 15%

SMILES: O=C1CCC(N2C(=O)c3ccccc3C2=O)C(=O)N1 (stereo not drawn)
Activity (MDA-MB-231 [25]): inactive

Continued, values first:

Activity [1]: inactive
SMILES: NC(=O)c1cc2c(=O)n(CC(=O)NCCCCCCNc3cccc4c3C(=O)N(C3CCC(=O)NC3=O)C4=O)c(=O)n(C3CC3)c2nc1N (stereo not drawn)

Activity [1]: inactive
SMILES: NC(=O)c1cc2c(=O)n(CC(=O)NCCCCCCNC(=O)COc3cccc4c3C(=O)N(C3CCC(=O)NC3=O)C4=O)c(=O)n(C3CC3)c2nc1N (stereo not drawn)

Activity [1]: inactive
SMILES: CCn1c(=O)n(CC(=O)NCCNc2cccc3c2C(=O)N(C2CCC(=O)NC2=O)C3=O)c(=O)c2cc(C(N)=O)c(N)nc21 (stereo not drawn)

Activity [1]: inactive
SMILES: NC(=O)c1cc2c(=O)n(CC(=O)NCCCCNC(=O)COc3cccc4c3C(=O)N(C3CCC(=O)NC3=O)C4=O)c(=O)n(C3CC3)c2nc1N (stereo not drawn)

Activity [1]: inactive
SMILES: NC(=O)c1cc2c(=O)n(CC(=O)NCCNc3cccc4c3C(=O)N(C3CCC(=O)NC3=O)C4=O)c(=O)n(C3CC3)c2nc1N (stereo not drawn)

Activity [1]: 20%
SMILES: CCn1c(=O)n(CC(=O)NCCCCCCNc2cccc3c2C(=O)N(C2CCC(=O)NC2=O)C3=O)c(=O)c2cc(C(N)=O)c(N)nc21 (stereo not drawn)

Activity [1]: inactive
SMILES: NC(=O)c1cc2c(=O)n(CC(=O)NCCCCNc3cccc4c3C(=O)N(C3CCC(=O)NC3=O)C4=O)c(=O)n(C3CC3)c2nc1N (stereo not drawn)
